≈ marks a conversion by molar mass, not a printed value. Read-outs that look alike come from different tables or passages of the source.
Assays:
Test in all cases: MIC determination
Assay type in all cases: cell-based
S. aureus ATCC 29213 = conditions: Staphylococcus aureus
S. aureus BAA 977 iErmA = conditions: Staphylococcus aureus, BAA977
[1] = system: S. aureus Micromyx USA 300; conditions: Staphylococcus aureus, USA300
S. aureus MMX 3035 cErmA = conditions: Staphylococcus aureus, MMX3035CERMA
S. pneumoniae ATCC 49619 = conditions: Streptococcus pneumoniae, ATCC49619; S. pneumoniae ATCC 49619; read-out: MIC
[2] = system: S. pneumoniae MMX 3028 cErmB; conditions: Streptococcus pneumoniae, MMX3028CERMB
[3] = system: S. pneumoniae MMX 3031 cMefA; conditions: Streptococcus pneumoniae, MMX3031CMEFA
S. pyogenes ATCC 19615 = conditions: Streptococcus pyogenes, ATCC19615
[4] = system: S. pyogenes MMX 946 Macrolide-Resistant; conditions: Streptococcus pyogenes
E. faecalis ATCC 29212 = conditions: Enterococcus faecalis
[5] = system: E. faecalis MMX 847 Macrolide-Resistant; conditions: Enterococcus faecalis
C. difficile BAA 1805 = conditions: Clostridioides difficile, BAA1805
B. fragilis ATCC 25285 = conditions: Bacteroides fragilis, ATCC25285
E. coli ATCC 25922 = conditions: Escherichia coli, ATCC25922
[6] = system: E. coli MMX TolC parent strain; conditions: Escherichia coli
E. coli MMX 0121 ΔTolC = conditions: Escherichia coli
P. aeruginosa ATCC 27853 = conditions: Pseudomonas aeruginosa, ATCC27853
[7] = system: P. aeruginosa MMX Mex parent strain; conditions: Pseudomonas aeruginosa
[8] = system: P. aeruginosa MMX 3476 Δmex; conditions: Pseudomonas aeruginosa
H. influenzae ATCC 49247 = conditions: Haemophilus influenzae, ATCC49247
[9] = S. pyogenes ATCC 19615, read-out: MIC
[10] = C. difficile BAA 1805, read-out: MIC
[11] = B. fragilis ATCC 25285, read-out: MIC
[12] = ATCC29213, S. aureus ATCC 29213, read-out: MIC
[13] = S. aureus Micromyx USA 300, read-out: MIC

| SMILES | MIC (S. aureus ATCC 29213; ATCC29213) [mg/L] | MIC (S. aureus BAA 977 iErmA) [mg/L] | MIC [1] [mg/L] | MIC (S. aureus MMX 3035 cErmA) [mg/L] | MIC (S. pneumoniae ATCC 49619) [mg/L] | MIC [2] [mg/L] | MIC [3] [mg/L] | MIC (S. pyogenes ATCC 19615; [9]) [mg/L] | MIC [4] [mg/L] | MIC (E. faecalis ATCC 29212; ATCC29212) [mg/L] | MIC [5] [mg/L] | MIC (C. difficile BAA 1805) [mg/L] | MIC (B. fragilis ATCC 25285) [mg/L] | MIC (E. coli ATCC 25922) [mg/L] | MIC [6] [mg/L] | MIC (E. coli MMX 0121 ΔTolC) [mg/L] | MIC (P. aeruginosa ATCC 27853) [mg/L] | MIC [7] [mg/L] | MIC [8] [mg/L] | MIC (H. influenzae ATCC 49247) [mg/L] | further results |
| --- | --- | --- | --- | --- | --- | --- | --- | --- | --- | --- | --- | --- | --- | --- | --- | --- | --- | --- | --- | --- | --- |
| Cc1ccc(S(=O)(=O)OCC2O[C@H]([C@H](NC(=O)[C@H]3NC[C@@H]4CC=CCO[C@H]43)[C@@H](C)O)C(O)[C@@H](O)[C@H]2O)cc1 (stereo partly drawn) [FSA-211030] | > 64 | > 64 | > 64 | > 64 | 32 (≈ 57.5 µM) | > 64 | 32 (≈ 57.5 µM) | 1 (≈ 1.8 µM) | > 64 | > 64 | > 64 | > 64 | > 64 | > 64 | > 64 | > 64 | > 64 | > 64 | > 64 | > 64 |  |
| C[C@@H](O)[C@@H](NC(=O)[C@H]1NC[C@@H]2CC=CCO[C@H]21)[C@H]1OC(CN=[N+]=[N-])[C@H](O)[C@H](O)C1O (stereo partly drawn) [FSA-211064] | > 64 | > 64 | > 64 | > 64 | 16 (≈ 37.4 µM) | > 64 | 16 (≈ 37.4 µM) | 4 (≈ 9.36 µM) | > 64 | > 64 | > 64 |  | > 64 | > 64 | > 64 | > 64 | > 64 | > 64 | > 64 | > 64 | MIC (C. difficile BAA 1805; [10]): 64 mg/L (≈ 150 µM) |
| CSC1O[C@H]([C@H](NC(=O)[C@H]2NC[C@@H]3C=C(c4ccccc4)CCO[C@@H]23)[C@H](C)Cl)C(O)[C@@H](O)[C@H]1O (stereo partly drawn) [FSA-507031] | > 32 | > 32 | > 32 | > 32 | 32 (≈ 62.4 µM) | > 32 | 16 (≈ 31.2 µM) | 32 (≈ 62.4 µM) | > 32 | > 32 | > 32 | > 32 |  | > 32 | > 32 | > 32 | > 32 | > 32 | > 32 |  | MIC (B. fragilis ATCC 25285; [11]): 32 mg/L (≈ 62.4 µM); MIC (H. influenzae ATCC 49247; H. influenzae ATCC 49247, read-out: MIC): 8 mg/L (≈ 15.6 µM) |
| C=CC1=CCO[C@@H]2[C@H](CN[C@@H]2C(=O)N[C@H]([C@H](C)Cl)[C@H]2OC(SC)[C@H](O)[C@H](O)C2O)C1 (stereo partly drawn) [FSA-507041] |  | 0.5 (≈ 1.08 µM) |  | > 32 | ≤ 0.03 |  | ≤ 0.03 | 0.06 (≈ 0.13 µM) | > 32 |  | > 32 |  |  | > 32 | > 32 | 16 (≈ 34.6 µM) | > 32 | > 32 | > 32 | 16 (≈ 34.6 µM) | MIC (S. aureus ATCC 29213; [12]): 0.5 mg/L (≈ 1.08 µM); MIC [1, 13]: 0.25 mg/L (≈ 0.54 µM); MIC ([2]; S. pneumoniae MMX 3028 cErmB, read-out: MIC): 32 mg/L (≈ 69.1 µM); MIC (E. faecalis ATCC 29212; ATCC29212, read-out: MIC): 2 mg/L (≈ 4.32 µM); MIC (C. difficile BAA 1805; [10]): 0.5 mg/L (≈ 1.08 µM); MIC (B. fragilis ATCC 25285; [11]): 2 mg/L (≈ 4.32 µM) |
| CSC1O[C@H]([C@H](NC(=O)[C@H]2NC[C@H]3CC=CCO[C@H]32)[C@H](C)Cl)C(O)[C@@H](O)[C@H]1O (stereo partly drawn) [FSA-507051] | 16 (≈ 36.6 µM) | 16 (≈ 36.6 µM) | 16 (≈ 36.6 µM) | > 32 | 1 (≈ 2.29 µM) | > 32 | 1 (≈ 2.29 µM) |  | 32 (≈ 73.2 µM) | > 32 | > 32 | > 32 | 32 (≈ 73.2 µM) | 32 (≈ 73.2 µM) | > 32 | > 32 | > 32 | > 32 | > 32 | 16 (≈ 36.6 µM) | MIC (S. pyogenes ATCC 19615): 0.5 mg/L (≈ 1.14 µM) |
| CSC1O[C@H]([C@H](NC(=O)[C@H]2NC[C@@H]3C=C(c4ccc(F)cc4)CCO[C@@H]23)[C@H](C)Cl)C(O)[C@@H](O)[C@H]1O (stereo partly drawn) [FSA-507052] |  | 2 (≈ 3.77 µM) |  | > 32 | 0.25 (≈ 0.471 µM) | > 32 | 0.12 (≈ 0.226 µM) | 0.25 (≈ 0.471 µM) | > 32 |  | > 32 |  | > 32 | > 32 | > 32 | > 32 | > 32 | > 32 | > 32 | > 32 | MIC (S. aureus ATCC 29213; [12]): 2 mg/L (≈ 3.77 µM); MIC [1, 13]: 0.5 mg/L (≈ 0.942 µM); MIC (E. faecalis ATCC 29212; ATCC29212, read-out: MIC): 1 mg/L (≈ 1.88 µM); MIC (C. difficile BAA 1805; [10]): 16 mg/L (≈ 30.1 µM) |
